Experimental findings from patent US6992072B2, “Combating side-effects” (Pharma Nord ApS, priority 2001, dated 2006) are described below.

What all share (assay type): cell-based, human
Series [1] concerns HepG2 cell line. Put plainly: L-lactate in the culture medium of HepG2 cells, enzymatic test. As to conditions: ddC 177 nM; for Lactate values in the medium in percent of the control: control without ddC and without uridine, Day 0 = 100%. How it is done:
(§1) Cell culture. The HepG2 cell line, a human hepatoma cell line, is taken from the American Type Culture Collection (ATCC No. HB-8065). It is cultured at 37° C. in a 5% CO2 atmosphere. The culture medium is Dulbecco's Modified Eagle Medium (DMEM-containing 4.5 g/l glucose, 110 mg/l pyruvate, 4 mg/l nicotinamide, 4 mg/l pyridoxal hydrochloride, 4 mg/l thiamine and 0.4 riboflavin), supplemented with 10% fetal bovine serum (50 ml FCS, Mycoplex PAA Laboratories, Linz). On day 1, 2.7×10^6 cells are placed in 75 ml culture flasks (Falcon, Becton Dickinson, USA). On days 5, 10, 15, 20 and 25, the cells are trypsinized and counted; 2.7×10^6 cells are again spread out. The medium is changed on each day of trypsinization and on the third day after replating. Materials: Riboflavin (vitamin B2), thiamine (vitamin B1), ascorbic acid (vitamin C), uridine and ddC are purchased from Sigma (USA). The concentrations of uridine are given in the following tables; ddC is used in a concentration of 177 nM, which corresponds to the steady-state plasma levels of patients under HAART. A vitamin cocktail consisting of 7.125 mg/l riboflavin, 7.125 mg/l thiamine and 142.5 mg/l vitamin C is used. These pharmacological concentrations exceed the daily requirement by a factor of about one hundred, and meet the safe upper limits according to the recommendations of the European Union for these micro-nutrients. Lactic acid: 1.5 ml of the remainder of the culture is removed in each case immediately before the trypsinization and the L-lactate in it is determined enzymatically with the lactate test-kit from Roche Diagnostics (order No.1822837) in an automatic analysis device (Roche/Hitachi 917) according to the recommendations of the manufacturer.

Series [2] concerns HepG2 cell line. Put plainly: Number of HepG2 cells on the day of trypsinization (survival) in the presence of ddC. The conditions noted are these: ddC 177 nM; for Number of cells on the day of the trypsinization: HepG2, uridine 200 μM or vitamin cocktail where named. How it is done: as §1, with “micro-nutrients.” for “micro-nutrients. Lactic acid: 1.5 ml of the remainder of the culture is removed in each case immediately before the trypsinization and the L-lactate in it is determined enzymatically with the lactate test-kit from Roche Diagnostics (order No.1822837) in an automatic analysis device (Roche/Hitachi 917) according to the recommendations of the manufacturer.”

The test system of series [3] is HepG2 cell line. The experiment in a line: Intracellular lipids of HepG2 cells, Oil-Red-O staining. How it is done:
as §1, with “The concentrations of uridine are given in the following tables; ddC is used in a concentration of 177 nM, which corresponds to the steady-state plasma levels of patients under HAART.” left out, “Determining the intracellular lipids: Intracellular lipid droplets' are stained by means” for “Lactic acid: 1.5 ml”, “Oil-Red-O (Sigma, USA). […]” for “the remainder of the culture is removed in each case immediately before the trypsinization and the L-lactate in it is determined enzymatically with the lactate test-kit from Roche Diagnostics (order No.1822837) in an automatic analysis device (Roche/Hitachi 917) according to the recommendations of the manufacturer.”

Series [4] concerns mitochondrial DNA (mtDNA). Put plainly: Quantification of mitochondrial DNA by Southern Blot (M/N ratio) in HepG2 cells. The conditions noted are these: ddC 177 nM; for Content of mitochondrial DNA, M/N-ratio in % of the control: control = HepG2-cells without ddC and without uridine. The procedure:
Cell culture. The HepG2 cell line, a human hepatoma cell line, is taken from the American Type Culture Collection (ATCC No. HB-8065). It is cultured at 37° C. in a 5% CO2 atmosphere. The culture medium is Dulbecco's Modified Eagle Medium (DMEM-containing 4.5 g/l glucose, 110 mg/l pyruvate, 4 mg/l nicotinamide, 4 mg/l pyridoxal hydrochloride, 4 mg/l thiamine and 0.4 riboflavin), supplemented with 10% fetal bovine serum (50 ml FCS, Mycoplex PAA Laboratories, Linz). On day 1, 2.7×10^6 cells are placed in 75 ml culture flasks (Falcon, Becton Dickinson, USA). On days 5, 10, 15, 20 and 25, the cells are trypsinized and counted; 2.7×10^6 cells are again spread out. The medium is changed on each day of trypsinization and on the third day after replating. Materials: Riboflavin (vitamin B2), thiamine (vitamin B1), ascorbic acid (vitamin C), uridine and ddC are purchased from Sigma (USA). The concentrations of uridine are given in the following tables; ddC is used in a concentration of 177 nM, which corresponds to the steady-state plasma levels of patients under HAART. A vitamin cocktail consisting of 7.125 mg/l riboflavin, 7.125 mg/l thiamine and 142.5 mg/l vitamin C is used. These pharmacological concentrations exceed the daily requirement by a factor of about one hundred, and meet the safe upper limits according to the recommendations of the European Union for these micro-nutrients. Quantification of mitochondrial DNA (mtDNA) by means of Southern Blot: The content of mtDNA is determined by a well-known Southern-Blot technique (C. T. Moraes et al., “Quantitative Defects of Mitochondrial DNA”, in: S. DiMauro and D. C. Wallace, “Mitochondrial DNA in Human Pathology”, Raven Press, New York 1993, Chapter 8, pages 97–108). Genomic DNA is extracted from the fatty tissue and cut with the restriction endonuclease Pvull. Five μg of the cut material are separated electrophoretically on a 0.8% agarose gel and transferred to a nylon membrane. The mtDNA is tested with a 12.9 kBp mtDNA fragment (which comprises the nucleotide positions 3470 and 16379 of human mtDNA (S. Anderson et al., Nature 9, 457–65 (1981), and which is marked by means stochastically binding primers with digoxigenin). In order to have an internal standard, digoxigen labeled nuclear DNA (nDNA), which hybridizes to the copy-number 18S-ribosomal DNA gene, serves as a second probe. The signals for mtDNA and nDNA are visualized, according to the recommendations of the manufacturer (Boehringer Mannheim, Germany), with a monoclonal antibody against digoxigenin, which is conjugated with alkaline phosphatase. The signal intensities are quantified by computer by means of standard software. The mtDNA content is expressed as the mtDNA/nDNA (M/N) ratio.

The structures appear in SMILES notation.

On to `Nc1ccn([C@H]2CC[C@@H](CO)O2)c(=O)n1` [ddC, dideoxycytidine], for which the “Lactate values in the medium in percent of the control” value in the series on HepG2 cell line [1] (Day 6) was 109.2%; with HepG2 cell line [1] (Day 10) it was 129.5%; with HepG2 cell line [1] (Day 15), 220.1%; in the series on HepG2 cell line [1] (Day 20), 374.9%; with HepG2 cell line [1] (Day 25) it was 392.5%. Also, the “Number of cells on the day of the trypsinization” value in the series on HepG2 cell line [2] (Day 5, 2.7×10^6 cells replated every 5 days) is reported as 110.0 100,000s; with HepG2 cell line [2] (Day 10), 98.5 100,000s; in the series on HepG2 cell line [2] (Day 20), 66.2 100,000s; in the series on HepG2 cell line [2] (Day 25), 38.4 100,000s. For the same compound, the “Intracellular lipids / steatotic changes, microscopic image” value in the series with HepG2 cell line [3] (Day 20, Oil-Red-O, 177 nM ddC, 200 μM uridine as printed) is “clearly fewer cells are found, which however, are relatively large and red-colored”. The “Content of mitochondrial DNA, M/N-ratio in % of the control” value in series [4] (Day 0) is 100.0%; in series [4] (Day 5) it was 25.6%; in series [4] (Day 10), 25.1%; in series [4] (Day 15) it was 11.5%; in series [4] (Day 20), 8.3%; in series [4] (Day 25) it was 8.4%.

Take `O=c1ccn([C@@H]2O[C@H](CO)[C@@H](O)[C@H]2O)c(=O)[nH]1` [uridine]: in the series on HepG2 cell line [1] (HepG2, uridine 200 μM), the “Production of lactic acid” value was “diminished by the uridine”. Moreover, the “Survival of the HepG2-cells in the presence of ddC” value with HepG2 cell line [2] (uridine 200 μM, 25-day incubation) is reported as “normalizes the survival of the HepG2-cells in the presence of ddC”. Besides, the “Compensation for the side effects of ddC (overall, see also Tables 1 to 3)” value with HepG2 cell line [3] (summary of lipid staining, cell number, mtDNA and lactate) was “can compensate for the side effects of ddC”. The “Reduction of the mtDNA” value in series [4] (HepG2, uridine 200 μM) was “diminishes the reduction of the mtDNA”.
